# Earlier results in patent US6403086B1, “Administering extracts of morinda citrifolia, red wine, prune, blueberry, pomegranate, apple and an enzyme mixture” (priority 2001, dated 2002).
# Details: supplementation with 30 IU to 100 IU
substance,measurement,value
vitamin E,lower risk of heart disease,41%
